Assay: xn = mol fraction of the nth substance listed
Settings: Liquid; for mass density: Vibrating wire densiometer; for viscosity: Vibrating wire viscometry

CCCCCCCCCCCCCCCC [hexadecane] + O=C=O
Settings | mass density [kg/m3] | viscosity [mPa·s]
298.14 K, 21810 kPa, x2 = 0.727 | 822.6 | 0.786
298.14 K, 22010 kPa, x2 = 0.727 | 822.8 | 0.787
298.14 K, 31030 kPa, x2 = 0.727 | 831.7 | 0.861
298.14 K, 41130 kPa, x2 = 0.727 | 840.7 | 0.943
298.16 K, 10920 kPa, x2 = 0.069 | 776.3 | 3.057
298.16 K, 11130 kPa, x2 = 0.069 | 776.5 | 3.075
298.16 K, 21440 kPa, x2 = 0.069 | 782.8 | 3.474
298.16 K, 30250 kPa, x2 = 0.069 | 787.6 | 3.87
298.18 K, 10440 kPa, x2 = 0.5877 | 802.3 | 1.003
298.18 K, 10670 kPa, x2 = 0.5877 | 802.7 | 0.998
298.18 K, 20560 kPa, x2 = 0.5877 | 811.8 | 1.107
298.18 K, 30070 kPa, x2 = 0.5877 | 819.7 | 1.219
298.18 K, 40380 kPa, x2 = 0.5877 | 827.4 | 1.344
323.12 K, 21230 kPa, x2 = 0.727 | 796.3 | 0.565
323.12 K, 21410 kPa, x2 = 0.727 | 796.3 | 0.565
323.12 K, 40330 kPa, x2 = 0.727 | 817.3 | 0.679
323.12 K, 60540 kPa, x2 = 0.727 | 835.2 | 0.806
323.12 K, 80280 kPa, x2 = 0.727 | 850.1 | 0.93
323.12 K, 100230 kPa, x2 = 0.727 | 863.2 | 1.064
323.12 K, 119920 kPa, x2 = 0.727 | 874.7 | 1.204
323.15 K, 10410 kPa, x2 = 0.069 | 759.1 | 1.83
323.15 K, 10420 kPa, x2 = 0.069 | 759.2 | 1.827
323.15 K, 10630 kPa, x2 = 0.5877 | 779 | 0.704
323.15 K, 10860 kPa, x2 = 0.5877 | 779.5 | 0.703
323.15 K, 20230 kPa, x2 = 0.069 | 765.7 | 2.061
323.15 K, 20850 kPa, x2 = 0.5877 | 790.2 | 0.786
323.15 K, 40110 kPa, x2 = 0.5877 | 807.6 | 0.947
323.15 K, 40860 kPa, x2 = 0.069 | 778.3 | 2.56
323.15 K, 60100 kPa, x2 = 0.5877 | 822.7 | 1.122
323.15 K, 60910 kPa, x2 = 0.069 | 788.7 | 3.13
323.15 K, 80840 kPa, x2 = 0.069 | 798.2 | 3.755
323.15 K, 99870 kPa, x2 = 0.069 | 806 | 4.474
373.08 K, 10380 kPa, x2 = 0.069 | 726.3 | 0.927
373.08 K, 12120 kPa, x2 = 0.069 | 728 | 0.947
373.08 K, 21470 kPa, x2 = 0.069 | 735.9 | 1.048
373.08 K, 26470 kPa, x2 = 0.727 | 752.5 | 0.365
373.08 K, 26600 kPa, x2 = 0.727 | 752.7 | 0.365
373.08 K, 40330 kPa, x2 = 0.069 | 749.9 | 1.263
373.08 K, 40830 kPa, x2 = 0.727 | 773 | 0.424
373.08 K, 60000 kPa, x2 = 0.727 | 794.6 | 0.503
373.08 K, 60300 kPa, x2 = 0.069 | 762.5 | 1.514
